Structures are written as SMILES.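 The compound was tested at five concentrations on cells cultured in 96-well plates, with a 48-hour exposure period. The concentration for 50% growth inhibition is given as GI50. Definition used: TGI = concentration required for complete inhibition of growth.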 Some results are limits rather than exact numbers.

Holding throughout (assay): NCI-60 cell line screen, 48 h
The test system of assay [1] is MDA-MB-231 breast.
Assay [2] concerns HT29 colon.
Assay [3] deals with UO-31 renal.
Assay [4] relates to MDA-MB-435.
Assay [5] has as its system DU-145 prostate.
The subject of assay [6] is BT-549 breast.
Assay [7] concerns HOP-62 NSCLC.
Assay [8] concerns OVCAR-5 ovarian.
Assay [9] deals with 786-0 renal.
Assay [10] relates to HOP-92 NSCLC.

For the molecule `CC1(C)OC2C(=O)C=C(COCc3ccccc3)C2O1` (stereo not drawn), the TGI in assay [1] was more than 100 µM; in assay [2] it was more than 100 µM; in [3], 50.1 µM; in assay [4], 71.2 µM; in [5], more than 100 µM; in assay [6], 39.8 µM. Also, the figures for the TGI in assay [7], in assay [8] and in assay [9] were 79 µM, 84.6 µM and more than 100 µM, respectively.

`C[CH2][Pb]([CH2]C)([CH2]C)[O]C(=O)c1ccc2ccccc2n1`: the GI50 in [1], in assay [2], in assay [3], in assay [10], in assay [4] and in [5] was more than 10 µM each time. The GI50 in [6], in assay [7], in assay [8] and in assay [9] was more than 10 µM throughout. Also, the TGI in assay [1], in assay [2], in [3], in [10], in assay [4] and in [5] was more than 10 µM in each case. Moreover, the TGI in assay [6], in assay [7], in assay [8] and in assay [9] was more than 10 µM each time.

Take `CSC(=S)N/N=C(\C)c1cccc(C)n1`: the TGI in [1] was 36.4 µM; in assay [2], more than 47.3 µM; in [3], 13.2 µM; in assay [10], 13.9 µM; in assay [4], more than 35.7 µM; in assay [5], 12.8 µM. The TGI in assay [6] was 57.7 µM; in assay [7], 6.98 µM; in assay [8], 86.5 µM; in [9] it was 28 µM.

As for `COC1O[C@@H]2C[C@H]3C(C)(C)CCC[C@]3(C)C3=CCCC1[C@@]32C` (stereo partly drawn), the GI50 in [1], in assay [2], in assay [3], in assay [10], in assay [4] and in [5] was more than 100 µM in each case. Moreover, the GI50 in [6], in [7], in assay [8] and in [9] was more than 100 µM in each case. Also, the TGI in [1], in [2], in assay [3], in [10], in assay [4] and in assay [5] was more than 100 µM in each case. Besides, the TGI in [6], in assay [7], in assay [8] and in assay [9] was more than 100 µM in each case.

With `CCCCn1c(=O)c2c(nc3n2CCCN3CCc2ccc(OCC(=O)NCCN(CC)CC)cc2)n(CCCC)c1=O`, the GI50 in [1] was 1.91 µM; in assay [2], 1.91 µM; in assay [3] it was 1.51 µM; in assay [10] it was 0.846 µM; in assay [4], 5.08 µM; in [5], 4.56 µM. The GI50 in assay [6] was 2.55 µM; in assay [7] it was 5.75 µM; in [8] it was 7.58 µM; in assay [9] it was 0.912 µM. Further, the TGI in assay [1] turned out to be 7.26 µM; in assay [2], 6.4 µM; in assay [3], 7.86 µM; in assay [10], 3.45 µM; in assay [4], 11.1 µM; in [5], 35.3 µM. Also, the TGI in assay [6] is 8.85 µM; in assay [7] it was 14.7 µM; in [8] it was 18 µM; in assay [9] it was 2 µM.

In the case of `CN(CCCCCl)P(=O)(OCCS(=O)(=O)CC(NC(=O)CCC(N)C(=O)O)C(=O)NC(C(=O)O)c1ccccc1)OCC1OC(n2cc(F)c(=O)[nH]c2=O)CC1O` (stereo not drawn), the GI50 was 8.96 µM in assay [1]; 2.68 µM in assay [2]; 0.0973 µM in assay [3]; 2.27 µM in [4]; 0.214 µM in assay [5]; 15.3 µM in assay [6]. Further, the results for the GI50 in assay [7], in [8] and in [9] were less than 0.01 µM, more than 27.4 µM and 0.0155 µM, respectively. In addition, the TGI in assay [1] is 68.6 µM; in assay [2], more than 100 µM; in assay [3], more than 81.2 µM; in [4], more than 100 µM; in [5], more than 100 µM; in assay [6], more than 94.7 µM. Also, the values for the TGI in [7], in assay [8] and in assay [9] were 6.99 µM, more than 100 µM and 2.62 µM, respectively.

For the molecule `C[C@@H]1O[C@@H](OC[C@H]2O[C@@H](OCCc3ccc(O)c(O)c3)[C@H](O)[C@@H](O)[C@@H]2OC(=O)/C=C/c2ccc(O)c(O)c2)[C@H](O)[C@H](O)[C@H]1O`, the GI50 in [1] was more than 100 µM; in assay [3], more than 100 µM; in assay [4] it was more than 100 µM; in assay [5], 36.8 µM; in assay [6], 24.5 µM; in assay [7] it was more than 100 µM. Also, the GI50 in assay [8] and in assay [9] was more than 100 µM in each case. Also, the TGI is more than 100 µM in assay [1]; more than 100 µM in [3]; more than 100 µM in [4]; more than 100 µM in assay [5]; 54.3 µM in assay [6]; more than 100 µM in assay [7]. The TGI in assay [8] and in assay [9] was more than 100 µM in each case.

`CCN(Cc1ccc(Cl)s1)c1ccc(CO)c(Cl)c1`: the GI50 in assay [1] was 8.74 µM; in assay [2], 3.01 µM; in assay [3], 1.12 µM; in [10], 0.563 µM; in assay [4], 20.3 µM; in assay [5], 12 µM. The GI50 was 8.19 µM in [6], 0.746 µM in [7], 0.0644 µM in [8] and 2.99 µM in assay [9]. For the same molecule, the TGI in assay [1] was 26.4 µM; in assay [2], 16.4 µM; in assay [3], 20 µM; in assay [10] it was 15.1 µM; in assay [4], 59 µM; in [5], more than 60.4 µM. Further, the TGI was 24.8 µM in assay [6], 18.4 µM in assay [7], 0.297 µM in assay [8] and 21.2 µM in [9].

The values above are taken from PubChem BioAssay (NCI).
